# Target: T1, Dimer of Gag-Pol polyprotein [489-587] (Human immunodeficiency virus 1, UniProt P12497)
# T1 construct: 489-587
# Assay: Protease Inhibition Assay
# Conditions: pH 6; 37 °C
# Experimental: Sensitivity of HIV-1 protease activity to protease inhibitors was determined by a peptide substrate cleavage assay. Substrates and cleavage fragments were separated by reverse-phase HPLC, detected by absorbance at 215 nm, and quantified by comparison with a synthetic product standard.
row,SMILES,Ki
1,CSC[C@H](NC(=O)COc1cccc2cnccc12)C(=O)N[C@@H](Cc1ccccc1)[C@H](O)C(=O)N1CSC(C)(C)[C@H]1C(=O)NC(C)(C)C,0.088 nM
2,"CCc1c(O)cccc1C(=O)N[C@@H](Cc1ccccc1)[C@H](O)C(=O)N1CSC(C)(C)[C@H]1C(=O)NCc1ccccc1C [(R)-N-(2-Methylbenzyl)-3-[(2S,3S)-3-(2-ethyl-3-hydroxybenzoyl)amino-2-hydroxy-4-phenylbutanoyl]-5,5-methyl-1,3-thiazolidine-4-carboxamide]",0.16 nM
3,CSC[C@H](NC(=O)COc1cccc2cnccc12)C(=O)N[C@@H](Cc1ccccc1)[C@H](O)C(=O)N1CSC[C@H]1C(=O)NC(C)(C)C [Kynostatin 272],0.74 nM
